Measurements reported in the supplement of paper PMC13380429.

Experiments:
Conditions in all cases: 72 h
[1] = test system: Caco-2; experiment: cell viability relative to DMSO; higher = less toxic
[2] = test system: Calu-3; experiment: as above
[3] = test system: HepG2; experiment: as above
[4] = test system: U2OS; experiment: as above
[5] = test system: Vero E6; experiment: as above
[6] = test system: Caco-2; experiment: relative viability EC50 (midpoint between 100% and the lowest measured viability); higher = less toxic
[7] = test system: Calu-3; experiment: as above
[8] = test system: HepG2; experiment: as above
[9] = test system: U2OS; experiment: as above
[10] = test system: Vero E6; experiment: as above
[11] = test system: Caco-2; experiment: drug sensitivity score (DSS) for viability; higher = more toxic; extreme values may be limits of the assay
[12] = test system: Calu-3; experiment: as above
[13] = test system: HepG2; experiment: as above
[14] = test system: U2OS; experiment: as above
[15] = test system: Vero E6; experiment: as above

Row | SMILES | cell viability ([1]; 1 nM) [%] | cell viability ([1]; 10 nM) [%] | cell viability ([1]; 100 nM) [%] | cell viability ([1]; 1000 nM) [%] | cell viability ([1]; 10000 nM) [%] | cell viability ([2]; 1 nM) [%] | cell viability ([2]; 10 nM) [%] | cell viability ([2]; 100 nM) [%] | cell viability ([2]; 1000 nM) [%] | cell viability ([2]; 10000 nM) [%] | cell viability ([3]; 1 nM) [%] | cell viability ([3]; 10 nM) [%] | cell viability ([3]; 100 nM) [%] | cell viability ([3]; 1000 nM) [%] | cell viability ([3]; 10000 nM) [%] | cell viability ([4]; 1 nM) [%] | cell viability ([4]; 10 nM) [%] | cell viability ([4]; 100 nM) [%] | cell viability ([4]; 1000 nM) [%] | cell viability ([4]; 10000 nM) [%] | cell viability ([5]; 1 nM) [%] | cell viability ([5]; 10 nM) [%] | cell viability ([5]; 100 nM) [%] | cell viability ([5]; 1000 nM) [%] | cell viability ([5]; 10000 nM) [%] | relative viability EC50 [6] [µM] | relative viability EC50 [7] [µM] | relative viability EC50 [8] [µM] | relative viability EC50 [9] [µM] | relative viability EC50 [10] [µM] | drug sensitivity score [11] | drug sensitivity score [12] | drug sensitivity score [13] | drug sensitivity score [14] | drug sensitivity score [15]
1 | Clc1ccc(C2=CCC[C@H]3CC[C@@H]2N3)cn1 [UB-165] | 92.2 | 97.7 | 96.8 | 93 | 102 | 108 | 107 | 91.3 | 93.2 | 100 | 98.2 | 97 | 93.1 | 95.5 | 102 | 101 | 107 | 97.1 | 97.5 | 102 | 101 | 102 | 95.6 | 100 | 103 | > 10 | > 10 | > 10 | > 10 | > 10 | 0 | 0 | 0 | 0 | 0
2 | Cc1ccc(F)cc1C(=O)Nc1ccc(C(=O)N2Cc3cccn3Cc3ccccc32)c(Cl)c1 [lixivaptan] | 96.6 | 88.4 | 91.4 | 88.3 | 95 | 102 | 98.6 | 96.2 | 105 | 108 | 114 | 108 | 99.5 | 103 | 84.2 | 101 | 96.5 | 101 | 96.3 | 97.7 | 106 | 103 | 102 | 102 | 95.8 | > 10 | > 10 | > 10 | > 10 | > 10 | 0 | 0 | 0.2 | 0 | 0
3 | C[C@@H](N)[C@H]1CC[C@H](C(=O)Nc2ccncc2)CC1 | 101 | 95.3 | 96.2 | 104 | 108 | 84.6 | 97.2 | 104 | 114 | 122 | 97.8 | 96.8 | 95.2 | 84.5 | 99.3 | 99 | 102 | 91.1 | 102 | 92 | 97.8 | 99.1 | 96.4 | 93.7 | 92.2 | > 10 | > 10 | > 10 | > 10 | > 10 | 0 | 0 | 0 | 0 | 0
4 | C[C@@H](c1nc(-c2ccc(C#N)cc2)cs1)[C@](O)(Cn1cncn1)c1cc(F)ccc1F [isavuconazole] | 96.3 | 99.8 | 96 | 93.9 | 74.3 | 95.7 | 90.1 | 98.7 | 101 | 99.2 | 106 | 96 | 93.8 | 100 | 79.2 | 98.2 | 102 | 93.9 | 101 | 90.9 | 100 | 98 | 102 | 98.6 | 100 | – | > 10 | > 10 | > 10 | > 10 | 1.8 | 0 | 0.6 | 0 | 0
5 | CCN[C@H]1CN(CCCOC)S(=O)(=O)c2sc(S(N)(=O)=O)cc21 [brinzolamide] | 89.1 | 95.2 | 99.3 | 104 | 106 | 96.2 | 91.8 | 101 | 112 | 102 | 100 | 118 | 101 | 110 | 112 | 96.6 | 95.4 | 102 | 106 | 99.9 | 94.4 | 99.7 | 96.2 | 85.9 | 102 | > 10 | > 10 | > 10 | > 10 | > 10 | 0 | 0 | 0 | 0 | 0
6 | CCc1c2c(nc3ccc(O)cc13)-c1cc3c(c(=O)n1C2)COC(=O)[C@]3(O)CC [SN-38] | 99.4 | 89.5 | 73 | 34.1 | 20.7 | 112 | 85.9 | 54 | 25.1 | 28.8 | 86.6 | 48.6 | 29.5 | 5.6 | 2.4 | 107 | 102 | 79.9 | 25.8 | 4.9 | 102 | 101 | 71.2 | 58.3 | 9.6 | 0.183 | 0.0579 | 0.0122 | 0.326 | 0.65 | 15.6 | 19.7 | 32.4 | 16.2 | 11.9
7 | C=CCc1cccc(/C=N/NC(=O)CN2CCN(Cc3ccccc3)CC2)c1O [PAC-1] | 98.2 | 102 | 91.5 | 82.3 | 8 | 89.6 | 103 | 102 | 101 | 15.8 | 104 | 105 | 94 | 87 | 11.5 | 97.5 | 101 | 95.9 | 96.6 | 50.6 | 103 | 103 | 104 | 95.9 | 48.7 | 1.77 | 3.25 | 2 | – | 2.52 | 8 | 4.6 | 7.1 | 3.1 | 3.3
